Assay results: patent EP1439177B1, “Antiviral activity and resolution of 2-hydroxymethyl-5-(5-fluorocytosin-1-yl)-1,3-oxathiolane” (Emory University, priority 1991, dated 1992)
Where two headings read alike, the source gives them in different places.

Experiments:
[1] = tested on: peripheral human bone marrow cells; assay: Toxicity to peripheral human bone marrow cells; type: cell-based; conditions: concentrations up to 50 µM
in vitro [2] = conditions: human, cem cells
[3] = Chronic oral treatment of rodents, toxicity; type: in vivo; conditions: oral doses of 85 mg/kg per day for at least two months
other cell lines = assay: Toxicity to other cell lines; type: cell-based; conditions: concentrations up to 200 µM
human PBM cells = assay: Uptake of radiolabeled FTC into human PBM cells; type: in vitro ADME; conditions: 10 µM radiolabeled FTC, 2 to 24 hours; Figure 7
Method: All studies were conducted in duplicate.

in vivo [4] = conditions: rat, plasma, iv
HIV = assay: microbe, parasite or virus in culture; type: cell-based; conditions: Human immunodeficiency virus 1
in vitro [5] = conditions: african green monkey, vero cells
in vivo [6] = conditions: rhesus monkey, 33.3 mg/kg; for clearance: CLT, I.V. 33.3 mg/kg
HIV-1 = assay: microbe, parasite or virus in culture
Method: (§1) Cell lines were obtained from either human donors, AIDS Research and Reference Reagent Program, NIH, Rockville, Maryland, ATCC, or the Red Cross. The CEM thymidine kinase deficient cells were prepared by sequential passage of CEM cells in the presence of 5-bromo-2'-deoxyuridine.

HIV-2 = assay: microbe, parasite or virus in culture; conditions: Human immunodeficiency virus 2, PBMC
Method: as §1

FIV = assay: microbe, parasite or virus in culture; conditions: Feline immunodeficiency virus, CRFK
Method: as §1

SIV = assay: microbe, parasite or virus in culture; conditions: Simian immunodeficiency virus
Method: as §1

HIV-1 (strain LAV) = assay: microbe, parasite or virus in culture; type: cell-based; conditions: Human immunodeficiency virus 1, PBMC
Source text: It is often desirable to screen a number of racemic mixtures of nucleosides as a preliminary step to determine which warrant further resolution into enantiomerically enriched components and further evaluation of antiviral activity. The ability of nucleosides to inhibit HIV can be measured by various experimental techniques. The technique used herein, and described in detail below, measures the inhibition of viral replication in phytohemagglutinin (PHA) stimulated human peripheral blood mononuclear (PBM) cells infected with HIV-1 (strain LAV). The amount of virus produced is determined by measuring the virus-coded reverse transcriptase enzyme. The amount of enzyme produced is proportional to the amount of virus produced.
• A. Three-day-old phytohemagglutinin-stimulated PBM cells (10^6 cells/ml) from hepatitis B and HIV-1 seronegative healthy donors were infected with HIV-1 (strain LAV) at a concentration of about 100 times the 50% tissue culture infectious dose (TICD 50) per ml and cultured in the presence and absence of various concentrations of antiviral compounds. • B. Approximately one hour after infection, the medium, with the compound to be tested (2 times the final concentration in medium) or without compound, was added to the flasks (5 ml; final volume 10 ml). AZT was used as a positive control. • C. The cells were exposed to the virus (about 2 x 10^5 dpm/ml, as determined by reverse transcriptase assay) and then placed in a CO2 incubator. HIV-1 (strain LAV) was obtained from the Center for Disease Control, Atlanta, Georgia. The methods used for culturing the PBM cells, harvesting the virus and determining the reverse transcriptase activity were those described by McDougal et al. (J. Immun. Meth. 76, 171-183, 1985) and Spira et al. (J. Clin. Meth. 25, 97-99, 1987), except that fungizone was not included in the medium (see Schinazi, et al., Antimicrob. Agents Chemother. 32, 1784-1787 (1988); Id., 34:1061-1067 (1990)). • D. On day 6, the cells and supernatant were transferred to a 15 ml tube and centrifuged at about 900 g for 10 minutes. Five ml of supernatant were removed and the virus was concentrated by centrifugation at 40,000 rpm for 30 minutes (Beckman 70.1 Ti rotor). The solubilized virus pellet was processed for determination of the levels of reverse transcriptase. Results are expressed in dpm/ml of sampled supernatant. Virus from smaller volumes of supernatant (1 ml) can also be concentrated by centrifugation prior to solubilization and determination of reverse transcriptase levels.

[7] = Growth inhibition of mitogen-stimulated uninfected human PBM cells, trypan blue exclusion; type: cell-based; conditions: human, pbm cells

## Nc1nc(=O)n([C@@H]2CS[C@H](CO)O2)cc1F (racemic) [(±)-FTC, (±)-β-D.L-2-hydroxymethyl-5-(5-fluorocytosin-1-yl)-1,3-oxathiolane]
[1]
  toxicity: nontoxic
In vitro [2]
  CC50: > 100000 nM
[3]
  toxicity of chronic treatment: not toxic
Other cell lines
  toxicity: nontoxic
Human PBM cells
  uptake in human lymphocytes: readily taken up
In vivo [4]; 10 mg/kg
  clearance: 16.5 mL/min/kg
  half-life: 45.4 min
In vivo [4]; 50 mg/kg
  MRT: 48 min
  clearance: 14.6 mL/min/kg
  half-life: 48.9 min
In vivo [4]; 100 mg/kg
  clearance: 13.8 mL/min/kg
  half-life: 58.1 min
HIV
  IC50: 520 nM
In vitro [5]
  CC50: > 100000 nM
In vivo [6]; iv
  Vd: 2 L/kg
In vivo [6]; iv, Mean of three monkeys
  clearance: 24.8 mL/min/kg
In vivo [6]; iv, individual monkeys RUh, RMi, RJd
  clearance: 29 mL/min/kg
In vivo [6]; po, F (bioavailability), P.O. 33.3 mg/kg, individual monkeys RUh, RMi, RJd
  bioavailability: 80%
HIV-1; Human immunodeficiency virus 1, CEM (HTLV1118) NIH
  EC50: 90 nM
HIV-1; Human immunodeficiency virus 1, CEM (LAV-1)
  EC50: 80 nM
HIV-1; Human immunodeficiency virus 1, CEM-TK(-), CEM-TK^(-) (LAV-1)
  EC50: 26 nM
HIV-1; Human immunodeficiency virus 1, MT2 (HTLV1118)
  EC50: 890 nM
HIV-1; Human immunodeficiency virus 1, PBMC, PBMC (LAV-1)
  EC50: 27 nM
HIV-2
  EC50: 3.8 nM
FIV
  EC50: ≤ 1000 nM
SIV
  EC50: 4600 nM
SIV; C8166
  EC50: < 8000 nM
HIV-1 (strain LAV); read-out: Antiviral EC50
  EC50: 10 nM
HIV-1 (strain LAV); read-out: activity in PBM cells
  EC50: ~10 nM
[7]
  CC50 at 144 h: > 100000 nM
